These results are taken from a melting point compilation (Tetko et al.; mined from patent text by program, amines drawn as free bases though some values may be those of a salt).

Usually melting point stands for the temperature of the solid-liquid transition. `CCn1cc(C(=O)O)c(=O)c2cc(F)c(N3CCNC(c4ccsc4)C3)cc21` (stereo not drawn) showed a melting point of 198 to 200 °C.

On to `COc1cc2c(-c3ccc(Cl)cc3)csc2c(Cl)c1Cl`, for which the melting point lay within 190 to 191 °C.

The molecule `COc1cccc([C@H]2O[C@H](CC#N)C(=O)N(CC(C)(C)C)c3ccc(Cl)cc32)c1OC` yielded a melting point of 193 to 194 °C.

The molecule `NC(=O)c1cc(Cl)c(Cl)c(Cl)n1` registered a melting point of 169 to 170 °C.

As to `CC(=O)OC1CCC2(C)C(=CCC3C2CCC2(C)C(C(C)C(O)CCC(C)(C)C)CCC32)C1` (stereo not drawn), the melting point was 185 to 187 °C.

For `CCCCC(=O)c1c(-c2ccc3c(Br)c(O)ccc3c2)oc2ccccc12`, the melting point was in the range of 171 to 172 °C.

Consider `CCCCCc1c(C(C)C)nc(C(C)C)c(CO)c1-c1ccccc1C`, for which the melting point fell in the range of 81 to 83 °C.

`Cc1c(N2CC[C@@H](C3(NCCO)CC3)C2)c(F)cc2c(=O)c(C(=O)O)cn([C@@H]3C[C@@H]3F)c12` gave a melting point of 168 to 170 °C.

`CN(C(=O)c1cccc(C(F)(F)F)c1)c1ccccc1CCCCC(=O)O`: the melting point fell in the range of 81 to 83 °C.

`CCOC(=O)CC(=O)c1ccc(-c2ccccc2)cc1` had a melting point of 75 to 77 °C.

The molecule `COc1cc(OC)nc(Nc2ncccc2C(=O)OCc2ccccc2)n1` came in with a melting point of 128 to 131 °C.

`Cc1ncsc1C(C)(O)c1ccccc1` (stereo not drawn) displayed a melting point of 128 to 130 °C.

For the molecule `O=[N+]([O-])c1ccc(O)cc1Br`, the melting point lay within 130 to 135 °C.

`Cc1cc(C=O)ccc1C(=O)NCc1ccccn1` gave a melting point of 79.5 to 83 °C.

The molecule `Cc1ccc(C(=O)P2(=O)Oc3ccccc3-c3ccccc32)c(C)c1` (stereo not drawn) yielded a melting point of 166 °C.

For `CC(C)Oc1ccc2c(O)c(C(=O)O)nc(Cl)c2c1`, the melting point was in the range of 139 to 141 °C.

As for `O=C1N(C(c2ccccc2)c2ccccc2)c2ccccc2C12COc1cc3c(cc12)CCCO3` (stereo not drawn), the melting point was 208 to 211 °C.

Regarding `OCCCCCCOc1ccccc1`, the melting point was in the range of 69 to 74 °C.

Consider `COc1cc2c(cc1OC)CN(CCCCNC(=O)c1cc(C)ccc1OCCOCCF)CC2`, for which the melting point fell in the range of 89.2 to 89.5 °C.

The molecule `CC(C)[C@H](COc1ccccc1)Nc1nc(Cl)nc2c1ncn2[C@@H]1O[C@H](CO)[C@@H](O)[C@H]1O` gave a melting point of 95 to 100 °C.

In the case of `Cc1sc(C(=O)O)c2c1-c1nn(Cc3ccccc3)cc1CC2`, the melting point lay in the range of 231 to 232 °C.

As to `C#CCOc1cc(CO)cc(OCC#C)c1`, the melting point is 79 to 80 °C.

Turning to `Nc1nsnc1NCCCOc1cccc(CN2CC=CCC2)c1`, the melting point lay within 99.5 to 104 °C.

The molecule `CCNCCCCCC(C)O` (stereo not drawn) had a melting point of 37 to 38 °C.

The molecule `CCOC(=O)C(=CNc1ccc(CC)nc1)C(=O)OCC` showed a melting point of 55 to 57 °C.

In turn, `COCC(=O)Nc1cccc2c1C(=O)N(C1(C)CCC(=O)NC1=O)C2=O` (stereo not drawn) displayed a melting point of 244 to 246 °C.

The molecule `C=CCOC(=O)c1c(C)nc2c(cnn2CCC(=C)C)c1N` returned a melting point of 68 to 69 °C.

Consider `CCN1c2ncc(CCc3cccc(N=[N+]=[N-])c3)cc2C(=O)N(C)c2ccc(Cl)nc21`, for which the melting point lay in the range of 104 to 105 °C.

Molecule `COc1c(C)c(C)c(OC)c(CCCCO)c1C` yielded a melting point of 85.1 to 87.1 °C.

Molecule `COc1cccc(C(O)c2cccc(C(F)(F)F)c2)c1` (stereo not drawn) yielded a melting point of 51 to 52 °C.

`CC(O)CSC(=S)Nc1ccccn1` (stereo not drawn) displayed a melting point of 78 °C.

The molecule `COC(=O)C(=O)c1ccc(OC/C=C/c2ccc(F)cc2)cc1` yielded a melting point of 84 to 85 °C.

Molecule `CC(C)n1c(=O)n(C)c(=O)c2c(SCCCO)n(C3Cc4ccccc4C3)cc21` returned a melting point of 123 to 125 °C.

In the case of `O=C(CCN1CCNC1=O)N1CCC(C2c3ncc(Br)cc3CCc3cc(Cl)cc(Br)c32)CC1` (single isomer, unassigned; (+)), the melting point fell in the range of 202 to 203 °C.

With `CC(C)Oc1ccc(CCCOc2cc(CCC(=O)O)n(-c3ccccc3)n2)c(OCc2ccc(Cl)cc2Cl)c1`, the melting point lay in the range of 139 to 141 °C.

With `CC(c1ccc(O)cc1)(c1ccc(O)cc1)c1ccc(C(C)(c2ccc(O)cc2)c2ccc(O)cc2)cc1`, the melting point is 307 °C.

The molecule `Cc1cn(Cc2cccc(Cl)c2)cc1C(=O)CC(=O)C(=O)O` yielded a melting point of 148 to 149 °C.

The molecule `CC(=O)c1cc2cccc(NS(=O)(=O)c3cccs3)c2[nH]1` registered a melting point of 241 to 243 °C.

As for `CCCCOc1ccc(S(=O)(=O)Nc2onc(C)c2Br)cc1`, the melting point fell in the range of 98 to 100 °C.

Take `O=S(=O)(O)c1ccc(Nc2ncnc3cc(Cl)ccc23)cc1`: the melting point is greater than 300 °C.

On to `CCSCc1cccc(-c2nc(=O)c3ccccc3s2)n1`, for which the melting point lay in the range of 142 to 144 °C.

Turning to `[N-]=[N+]=Nc1nc(N=[N+]=[N-])c2ncn(COC(CO)CO)c2n1`, the melting point was in the range of 174 to 180 °C.

`CCOC1OC(CO)C(COc2c(C(C)(C)C)cc(SC(C)(C)Sc3cc(C(C)(C)C)c(O)c(C(C)(C)C)c3)cc2C(C)(C)C)O1` (stereo not drawn) gave a melting point of 60 to 62 °C.

In turn, `CC(C)[C@H](NS(=O)(=O)c1ccc(-c2ccc(Br)cc2)cc1)C(=O)O` returned a melting point of 192 to 193 °C.

`CC(C)n1nc(-c2cnc(N)nc2-c2c(F)cccc2F)ccc1=O` registered a melting point of 244 °C.

Molecule `CN1CCN(c2ccc(-n3c(-c4cc(-c5cnc6[nH]ccc6c5)ccn4)cn(C)c3=O)cc2C(F)(F)F)CC1` gave a melting point of 241 °C.

In the case of `CCOCc1nc2c(N)nc3cc(-c4cncc(CO)c4)cnc3c2n1CC(C)(C)O`, the melting point fell in the range of 212 to 214 °C.

For `CNS(=O)(=O)c1ccccc1C`, the melting point lay in the range of 62 to 64 °C.

Take `c1ccc(C(CCOc2ccc(-c3nnn[nH]3)cc2)(c2ccccc2)c2ccccc2)cc1`: the melting point was in the range of 232 to 233 °C.

Take `O=C(NCc1ccccc1)N1CC(Oc2cccc(C(F)(F)F)c2)C1`: the melting point fell in the range of 174 to 175 °C.

`CCCCCCc1c(Cl)nc(NC=O)nc1Cl` yielded a melting point of 80 to 81 °C.

In turn, `CCCc1nn(-c2ccc(C(F)(F)F)cn2)cc1CCCC=O` came in with a melting point of 71 to 72 °C.

The molecule `CCOC(=O)c1cnc2c(C)cc(-c3ccc(Cl)cc3)cn12` returned a melting point of 147 °C.

For the molecule `COc1ccc2nc(-c3cccc(C)c3)cc(OCc3ccccc3)c2c1`, the melting point lay within 133 to 134 °C.

The molecule `CC(=O)OC1CCC(c2ccccc2)CC1` (stereo not drawn) yielded a melting point of 43 to 45 °C.

Turning to `CN1CCc2c(-c3ccc([N+](=O)[O-])cc3)cc3c(c2C1)NC(=O)C3=O`, the melting point is greater than 300 °C.

The molecule `CNC(=O)c1ccccc1CC(O)(CCN(C)C)c1ccccc1` (stereo not drawn) registered a melting point of 140 °C.

Take `COc1ccc(O)cc1/C=C/C(=O)CC(=O)/C=C/c1cc(O)ccc1Br`: the melting point was 90 to 96 °C.

With `N#CCc1cccc(C(=O)c2ccc(Cl)cc2)c1N`, the melting point lay within 181 to 182 °C.

In the case of `COc1cc(CN2C(=O)CCC2=O)cc(OC)c1-c1ccc(C[C@H](NC(=O)c2c(Cl)cccc2Cl)C(=O)O)cc1`, the melting point was 137 °C.

`Cc1c(-c2cc(Cl)cc(Cl)c2)ccc(N)c1C#N` gave a melting point of 182 °C.

In the case of `CC(=O)SCC(C(=O)NC(C)C(=O)OCc1ccccc1)C1CCc2ccccc21` (stereo not drawn), the melting point was found to be 95 °C.

On to `CC(C)(CCCCC=CCCCCC(C)(C)CC(=O)O)CC(=O)O`, for which the melting point lay in the range of 100 to 101 °C.

`CC(C)(C)[C@H]1CC[C@H](N(Cc2ccc(C(=O)NC[C@H](O)C(=O)O)cc2)C(=O)Nc2cc(C(F)(F)F)cc(C(F)(F)F)c2)CC1` gave a melting point of 185 to 187 °C.

On to `O=C1Nc2cccnc2C12COc1cc3c(cc12)OCCO3` (stereo not drawn), for which the melting point was greater than 250 °C.

Turning to `COc1c(Cl)nc(C(=O)O)c(Cl)c1N`, the melting point lay in the range of 154 to 156 °C.

Molecule `CCOC(=O)c1ccc(NC(=O)NCCn2c(C)ccc2C)cc1` gave a melting point of 181 to 182 °C.

`O=C1N[C@H](Cc2cccc(OC(F)(F)C(F)F)c2)[C@H](c2cccc(F)n2)O1` (racemic) displayed a melting point of 118 to 119 °C.

In turn, `CC(c1ccc(NC=O)cc1)n1ccnc1` (stereo not drawn) gave a melting point of 129 °C.

With `FC(F)(F)C(F)(F)c1nc(-c2ccc(OCCCn3ccnc3)cc2)no1`, the melting point lay within 60.5 to 61.5 °C.

Turning to `COc1c(OCc2ccc3ccccc3c2)cccc1C(=O)c1nccs1`, the melting point was 100 °C.

The molecule `C[C@@H](NC(=O)c1c[nH]c2ncc(-c3nn(C)c4cccnc34)nc12)C(=O)N1CC(C#N)C1` displayed a melting point of 194 to 198 °C.

In the case of `CCCCC1Cc2c(c3cccnc3n(-c3ccc(C)cc3)c2=O)O1` (stereo not drawn), the melting point fell in the range of 282 to 284 °C.

Take `CC(C)(C)OC(=O)N1C[C@@H](F)C[C@H]1C(=O)O`: the melting point lay within 158 to 159 °C.

Consider `CC#CCOc1ccc(S(=O)(=O)NC(Cc2c[nH]c3ccc(C)cc23)C(=O)O)cc1` (stereo not drawn), for which the melting point lay within 45 to 46 °C.

On to `CN(CCCc1cc(F)c2ncc(C(=O)NCc3ccc(Cl)cc3)c(O)c2c1)Cc1ccccc1`, for which the melting point fell in the range of 161 to 162 °C.

The molecule `CC(C)(O)CCCCc1ccc2ccccc2c1O` gave a melting point of 101 to 102 °C.

The molecule `COC(=O)/C(=N\OC1(C(=O)O)CCC1)c1ccco1` returned a melting point of 133 to 134 °C.

`O=C(O)CCNCCn1nc(-c2c(-c3ccccc3)nn3ccccc23)ccc1=O` gave a melting point of 230 to 232 °C.

`CCc1noc(-c2cn(-c3ccc4c(c3)OCO4)cn2)n1` displayed a melting point of 173 to 174 °C.

Turning to `Nc1nc2c(cnn2CCc2ccccc2)c2nc(-c3ccco3)nn12`, the melting point was in the range of 225 to 226 °C.

Take `COCCOc1ccc(OCC(O)CNCCOc2cccc(O)c2C(N)=O)cc1` (stereo not drawn): the melting point was 176 to 179 °C.

`CC(=O)c1ccc(S(=O)(=O)NCC(=O)O)cc1` came in with a melting point of 213 to 215 °C.

As for `COCc1cc(Cl)cc(C(=O)c2nc(OC)cc(OC)n2)c1[N+](=O)[O-]`, the melting point was 130 to 131 °C.

As for `CCOC(=O)/C=C/[C@H]1CC[C@H](c2ccc(C#N)cc2)CC1`, the melting point was determined as 125 °C.

As for `CCN(CC)C(=O)c1ccc(Nc2nc(OCC3CCCCC3)c3nc[nH]c3n2)cc1`, the melting point fell in the range of 138 to 140 °C.

For the molecule `CCCc1c(OCCOc2ccc(N)cc2)ccc(C(C)=O)c1O`, the melting point lay in the range of 73 to 74 °C.

`O=C1NCC=C2N=CN=C12` displayed a melting point of 242 to 245 °C.
